Laboratory results as given in patent US20010011085A1, “4-SUBSTITUTED CEPHEM DERIVATIVES AS ELASTASE INHIBITORS” (priority 1995, published 2001).

Biological target: T1, human leukocyte elastase (HLE) (Homo sapiens, UniProt P08246)
T1 construct: purchased Elastin Product Company
T1 sequence (P08246 30-267): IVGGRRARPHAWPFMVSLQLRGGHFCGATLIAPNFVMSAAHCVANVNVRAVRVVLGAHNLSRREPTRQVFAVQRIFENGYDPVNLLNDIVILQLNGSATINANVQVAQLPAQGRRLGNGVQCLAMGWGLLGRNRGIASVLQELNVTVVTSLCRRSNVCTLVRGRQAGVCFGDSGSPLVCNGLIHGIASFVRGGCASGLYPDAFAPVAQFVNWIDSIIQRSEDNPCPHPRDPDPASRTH
Experiment: Kinetic parameters for HLE inhibition (fluorogenic substrate assay)
Format: biochemical
Conditions: 37° C., 0.027M pH 7.4 phosphate buffer, substrate N-methoxysuccinyl-alanyl-prolyl-valyl-7-amido-4-methylcoumarin; for Ki: read-out: "Potency" Ki^ss (apparent dissociation constant of the HLE-inhibitor complex at steady state)
Protocol: The compounds of the present invention are characterized by high inhibitory activity on elastases, especially human leukocyte elastase (HLE). […] These efficacy parameters for HLE inhibition, Ki^ss and k5/Ki, are defined in the equation below, representing the interaction of the enzyme (E) with the compounds (I), which is monitored (see Protocol) in the presence of a […] enzyme substrate (S): [formula]
Kinetic parameters of HLE (Elastin Product Company) were determined at 37° C., 0.027M pH 7.4 phosphate buffer, […], 1% MeCN, NaCl (I=0.15), by monitoring the release of 7-amino-4-methylcoumarin (fluorescence detection) from N-methoxysuccinyl-alanyl-prolyl-valyl-7-amido-4-methylcoumarin as the substrate, according to the equations: [formula]
Full details of the Experimental Protocol are reported in M. Alpegiani et al., Eur. J. Med. Chem. 1992, 27, 875-890.

Row | Structure (SMILES) | "Efficiency" k5/Ki (rate of formation of the HLE-inhibitor complex) | Ki
1 | CO[C@H]1C(=O)N2C(C(=O)N3CCCC3)=C(C)C(OC(=O)c3c(C)cc(C)cc3C)S(=O)(=O)[C@H]12 (stereo partly drawn) [Compound No. 1, 2,4,6-Trimethylbenzoic Acid (6R,7S)-7-methoxy-3-methyl-5,5,8-trioxo-2-(pyrrolidine-1-carbonyl)-5-thia-1-aza-bicyclo[4.2.0] oct-2-en-4-yl Ester] | 800,000 M^−1s^−1 | < 0.002 µM
2 | CO[C@H]1C(=O)N2C(C(=O)N3CCCC3)=C(C)C(Sc3nc(=O)c(O)nn3C)S(=O)(=O)[C@H]12 (stereo partly drawn) [Compound No. 11, (6R,7S)-4-(6-Hydroxy-2-methyl-5-oxo-2,5-dihydro-[1,2,4]triazin-3-yl-sulfanyl)-7-methoxy-3-methyl-5,5-dioxo-2-(pyrrolidine-1-carbonyl)-5-thia-1-aza-bicyclo [4.2.0]oct-2-en-8-one] | 27,000 M^−1s^−1 | 0.02 µM
3 | CO[C@H]1C(=O)N2C(C(=O)N3CCCC3)=C(CSc3nc(=O)c(=O)[nH]n3C)CS(=O)(=O)[C@H]12 [Reference, reference compound] | 9,200 M^−1s^−1 | 0.1 µM
